Source: PMC6522524 (Nature Communications, 2019)
Values joined by “and” are separate entries in the source; they are usually repeats but may differ in a detail not shown here. Equal entries are not always repeated. Where two headings read alike, the source gives them in different places.

Legend:
[1] = tested on: HBV (ayw subtype, genotype D) replicon in HepG2.2.15 cells; test: microbe, parasite or virus in culture; format: cell-based, Hepatitis B virus; conditions: for activity at 10 µM: Hepatitis B virus, HepG2.2.15, 144 h, 6 days
[2] = tested on: HBV (pHBV1.2× adr) in transfected HepG2 cells; test: microbe, parasite or virus in culture; format: cell-based, Hepatitis B virus; conditions: 10 μM, 6 days
[3] = tested on: HBV (pHBV1.2× adr) in transfected HepG2 cells; test: microbe, parasite or virus in culture; format: cell-based, Hepatitis B virus; conditions: 10 μM, 6 days; remark: listed apart in the source
[4] = tested on: HBV pgRNA/precore RNA in HepG2.2.15 cells; format: cell-based, Hepatitis B virus
Protocol: Fig. 1 Effect of FDA-approved compounds on HBV replication. a Schematic depiction of the primary screening analysis. HepG2.2.15 cells, which were stably transfected with HBV replicons, were treated with 978 FDA-approved drugs (1 μM) for 3 days. Entecavir (ETV) (1 μM) served as positive control. […] Quantitative RT-PCR was performed after 6 days of incubation. d Effect of the 19 candidates on intracellular HBV capsid assembly. Huh-7 cells were transfected with pCDNA3-Core and exposed after 12 h to the 19 candidates (1 μM) for 36 h. The cells were lysed and assembled HBV core particles were isolated by sucrose step gradient ultracentrifugation, resolved on 1% agarose gels, and subjected to immunoblot analysis with anti-HBV core antibody.
(§1) Quantitative RT-PCR with primers that detect three HBV regions (R1, R2, and R3, Supplementary Table 1) was used to measure HBV transcription. This RT-PCR detects pgRNA and precore RNA (3.5 kB), two HBV surface-encoding RNAs (2.5 kB and 2.1 kB), and HBx-encoding RNA (0.7 kB)[55]. PCR conditions were 95 °C for 10 min initially, then 50 cycles of 95 °C for 30 s, 60 °C for 60 s and 72 °C for 30 s, and finally 1 cycle of 95 °C for 60 s, 55 °C for 30 s and 95 °C for 30 s.
(§2) a Schematic depiction of the R1, R2, and R3 regions of the HBV genome that were targeted by
(§3) quantitative RT-PCR to quantitate the transcription of pgRNA, two HBV surface RNAs, and HBx RNA.
(§4) pGL3/HBV pgRNA promoter or pGL3/HBV sRNA promoter. The data shown in (b – d) represent two

[5] = tested on: HBV transcripts in HepG2 cells transfected with pHBV1.2×; test: HBV transcription in HepG2 cells transfected with pHBV1.2×, quantitative RT-PCR; format: cell-based, Hepatitis B virus; conditions: Suppl. fig. 12c, ETV, Control = 1
Protocol: as §1, with “s. […]” for “s.”
a Schematic depiction of the R1, R2, and R3 regions of the HBV genome that were targeted by quantitative RT-PCR to quantitate the transcription of pgRNA, two HBV surface RNAs, and HBx RNA. […]
c Region 3 transcription in ciclopirox-treated (b) HepG2.2.15 cells and (c) HepG2 cells transfected with the pHBV1.2× plasmid. d The promoter analysis of ciclopirox-treated HepG2 cells transfected with pGL3/HBV pgRNA promoter or pGL3/HBV sRNA promoter. The data shown in (b – d) represent two

[6] = tested on: HBV pgRNA promoter, HBV sRNA promoter; test: Promoter analysis in HepG2 cells transfected with pGL3/HBV pgRNA promoter or pGL3/HBV sRNA promoter; format: cell-based, Hepatitis B virus; conditions: ETV
Text: as §2, §3, §4

[7] = tested on: HBsAg in HepG2.2.15 cells; test: Secreted HBsAg ELISA, HepG2.2.15 cells; format: cell-based, Hepatitis B virus; conditions: 6 days
Protocol: (§5) Secreted HBsAg (f, i respectively) was quantified by ELISA.
(§6) An HBsAg ELISA kit (KA0286, Abnova) was used to quantify HBsAg protein. Briefly, culture media were incubated in individual wells of the capture plates for 2 h. After washing, horseradish peroxidase-labeled rabbit anti-HBV surface antibody was added, followed by incubation for an additional 2 h. The substrate solution was added for 15–60 min and absorbance at 450 nm was measured.

[8] = tested on: HBsAg in HepG2 cells transfected with pHBV1.2×; test: Secreted HBsAg ELISA, HepG2 cells transfected with pHBV1.2×; format: cell-based, Hepatitis B virus; conditions: 10 μM, 6 days
Protocol: as §5, §6

[9] = tested on: HepG2 cells transfected with pHBV1.2×; conditions: HBV 1.2x adr, 10 μM, 6 days, Sample1-3
in vitro [10] = conditions: human, Cell viability(%), HepG2.2.15, 10 μM, 6 days
in vitro [11] = conditions: human, Cell viability(%), HBV 1.2x adr, 10 μM, 6 days

## C=C1[C@H](CO)[C@@H](O)C[C@@H]1n1cnc2c(=O)[nH]c(N)nc21 [ETV, entecavir]
[1]; 1 μM, 3 days' incubation
  HBV DNA particle secretion was reduced by: 42.1 ± 14.1%
[1]; HepG2.2.15 (figure 4d), 10 μM, read-out: Relative secreted HBV DNA level (Folds), AVERAGE
  activity at 10 µM: 1.36%
[1]; HepG2.2.15, 10 μM, read-out: Relative secreted HBV DNA level (Folds), individual samples
  activity at 10 µM: 1.96%
[2]; HBV 1.2x adr (figure 4g)
  Relative secreted HBV DNA level (Folds), AVERAGE: 0.03628 Folds
[2]; HBV 1.2x adr
  Relative secreted HBV DNA level (Folds), individual samples: 0.356 Folds and 6.706e-5 Folds and 0.0005754 Folds
[3]; HBV 1.2x adr (figure 4h)
  Relative intracellular HBV DNA level (Folds), AVERAGE: 0.1393 Folds
[3]; HBV 1.2x adr, Sample1-3
  Relative intracellular HBV DNA level (Folds), individual samples: 0.1084 Folds and 0.1053 Folds and 0.1147 Folds
[4]; Fig. 1c, 6 days
  Relative HBV pgRNA/precore RNA level (Folds), AVERAGE: 0.9573 Folds
[4]; Suppl. fig. 12b, R1, single samples, ETV, Control = 1
  Relative HBV transcript R1, Sample1-3: 0.9164 and 1.011 and 1.015
[4]; Suppl. fig. 12b, R2, ETV, Control = 1
  Relative HBV transcript R2, AVERAGE: 1.028
[4]; Suppl. fig. 12b, R3, ETV, Control = 1
  Relative HBV transcript R3, AVERAGE: 0.9829
[4]; Suppl. fig. 12b, R3, single samples, ETV, Control = 1
  Relative HBV transcript R3, Sample1-3: 0.9794 and 0.8641 and 0.8947
[5]; R1, single samples
  Relative HBV transcript R1, Sample1-3: 0.9971 and 1.095 and 1.085
[5]; R2
  Relative HBV transcript R2, AVERAGE: 1.083
[5]; R3
  Relative HBV transcript R3, AVERAGE: 0.953
[5]; R3, single samples
  Relative HBV transcript R3, Sample1-3: 0.9903 and 0.9758 and 0.8935
[6]; pgRNA promoter, Control = 1
  Relative pgRNA promoter activity, AVERAGE: 1.039
[6]; pgRNA promoter, single samples
  Relative pgRNA promoter activity, Sample1-3: 0.9019 and 1.084 and 1.13
[6]; sRNA promoter, Control = 1
  Relative sRNA promoter activity, AVERAGE: 1.037
[6]; sRNA promoter, single samples
  Relative sRNA promoter activity, Sample1-3: 0.9017 and 1.283 and 0.9275
[7]; HepG2.2.15 (figure 4f), 10 μM
  Relative secreted HBsAg (Folds), AVERAGE: 0.9837 Folds
[7]; HepG2.2.15, 10 μM, Sample1-2
  Relative secreted HBsAg (Folds), individual samples: 0.9818 Folds and 0.9857 Folds
[8]; HBV 1.2x adr (figure 4i)
  Relative secreted HBsAg (Folds), AVERAGE: 0.996 Folds
[8]; HBV 1.2x adr, Sample1-2
  Relative secreted HBsAg (Folds), individual samples: 1.007 Folds and 0.9855 Folds
[9]
  Cell viability(%), individual samples: 100.151% and 99.4005%
In vitro [10]; AVERAGE
  viability at 10 µM: 101%
In vitro [10]; individual samples, Sample1-3
  viability at 10 µM: 101%
In vitro [11]; AVERAGE
  viability at 10 µM: 99.6%
In vitro [11]; individual samples, Sample1-3
  viability at 10 µM: 99.3%
